Test results taken from PubChem BioAssay (NCI).
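Following 48 hours of exposure in 96-well plates, responses at five concentrations were used to interpolate endpoints linearly. At the TGI there is no net growth.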

Experiments:
Experiment in all cases: DTP human tumour cell line panel, 48 h
[1] = system: TK-10 renal
[2] = system: SK-MEL-28 melanoma
[3] = system: DU-145 prostate
[4] = system: SNB-19 CNS
[5] = system: 786-0 renal
[6] = system: SR leukemia
[7] = system: UACC-62 melanoma
[8] = system: MOLT-4 leukemia
[9] = system: HCT-116 colon
[10] = system: SF-539 CNS
[11] = system: OVCAR-5 ovarian
[12] = system: K-562 leukemia
[13] = system: NCI-H522 lung
[14] = system: CAKI-1 renal
[15] = system: NCI-H23 lung
[16] = system: BT-549 breast
[17] = system: HCT-15 colon
[18] = system: KM12 colon
[19] = system: HCC-2998 colon
[20] = system: PC-3 prostate
[21] = system: MCF7 breast
[22] = system: MDA-MB-435
[23] = system: HOP-62 NSCLC
[24] = system: RPMI-8226 leukemia
[25] = system: RXF 393 renal
[26] = system: SK-OV-3 ovarian
[27] = system: UACC-257 melanoma
[28] = system: M14 melanoma
[29] = system: CCRF-CEM leukemia
[30] = system: A498 renal
[31] = system: SW-620 colon
[32] = system: SF-295 CNS
[33] = system: A549 NSCLC
[34] = system: UO-31 renal
[35] = system: HL-60(TB) leukemia
[36] = system: EKVX NSCLC
[37] = system: OVCAR-8 ovarian
[38] = system: HS 578T breast
[39] = system: NCI-H460 lung
[40] = system: MDA-N
[41] = system: MALME-3M melanoma
[42] = system: U251 CNS
[43] = system: IGROV1 ovarian
[44] = system: NCI/ADR-RES ovarian
[45] = system: MDA-MB-231 breast
[46] = system: SF-268 CNS
[47] = system: COLO 205 colon
[48] = system: ACHN renal
[49] = system: HT29 colon
[50] = system: HOP-92 NSCLC
[51] = system: LOX IMVI melanoma
[52] = system: NCI-H226 lung
[53] = system: OVCAR-3 ovarian
[54] = system: SK-MEL-5 melanoma
[55] = system: OVCAR-4 ovarian
[56] = system: SNB-75 CNS
[57] = system: SK-MEL-2 melanoma
[58] = system: T-47D breast
[59] = system: SN12C renal

Measured: TGI

CC(O)(P(=O)(O)O)P(=O)(O)OCC(O)CN1CCOCC1 (stereo not drawn)
> 100 µM: [1] | [2] | [3] | [4] | [5] | [6] | [7] | [8] | [9] | [10] | [11] | [12] | [13] | [14] | [15] | [16] | [17] | [18] | [19] | [20] | [21] | [22] | [23] | [24] | [25] | [26] | [27] | [28] | [29] | [30] | [31] | [32] | [33] | [34] | [35] | [36] | [37] | [38] | [39] | [40] | [41] | [42] | [43] | [44] | [45] | [46] | [47] | [48] | [49] | [50] | [51] | [52]

Cn1ncc2c(Cl)ncnc21
> 100 µM: [1] | [2] | [3] | [4] | [5] | [53] | [6] | [7] | [8] | [9] | [10] | [11] | [54] | [12] | [13] | [14] | [15] | [16] | [55] | [17] | [18] | [19] | [20] | [21] | [22] | [23] | [24] | [25] | [26] | [27] | [28] | [30] | [31] | [56] | [32] | [33] | [34] | [35] | [36] | [37] | [38] | [39] | [40] | [42] | [57] | [58] | [43] | [44] | [46] | [47] | [48] | [49] | [59] | [50] | [51] | [52]
